Experiment [1] deals with Serine/threonine-protein kinase 24 (Homo sapiens) (UniProt Q9Y6E0). Nature of the experiment: Selectivity interaction (Kinase panel (KiNativ target engagement assay in Jurkat cells)) EUB0001635a STK24. In kind it is cell-based. As to conditions: Selectivity number of off-targets 0.0, Selectivity number of targets 233.0, Source Knowledge https://www.sciencedirect.com/science/article/pii/S2451945619300674?via%3Dihub, at 1 µM.

The target of experiment [2] is T1, Testis-specific serine/threonine-protein kinase 1 (Homo sapiens) (UniProt Q9BXA7).
T1 sequence (whole entry): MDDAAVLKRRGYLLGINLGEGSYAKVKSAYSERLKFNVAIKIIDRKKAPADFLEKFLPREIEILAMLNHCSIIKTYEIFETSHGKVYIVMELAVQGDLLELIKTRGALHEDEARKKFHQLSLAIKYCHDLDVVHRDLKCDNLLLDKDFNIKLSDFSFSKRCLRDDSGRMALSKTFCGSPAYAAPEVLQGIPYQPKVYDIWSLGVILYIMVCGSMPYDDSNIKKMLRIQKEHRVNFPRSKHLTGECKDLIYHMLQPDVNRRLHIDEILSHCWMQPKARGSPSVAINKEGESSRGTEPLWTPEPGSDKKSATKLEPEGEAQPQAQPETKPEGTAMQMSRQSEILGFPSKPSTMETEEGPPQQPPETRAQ
Nature of the experiment: Selectivity interaction (Ambit KINOMEscan and KiNATiv profiling in Jurkat cells) EUB0000090b TSSK1B. Type of experiment: cell-based. As to conditions: at 1 µM.

Experiment [3] deals with Mitogen-activated protein kinase kinase kinase kinase 5 (Homo sapiens) (UniProt Q9Y4K4). The experiment can be described thus: Selectivity interaction (KinomeScan (DiscoverX)) EUB0000607a MAP4K5. As to conditions: at 10 µM.
Experiment [4] has as its target T2, Serine/threonine-protein kinase D2 (Homo sapiens) (UniProt Q9BZL6).
T2 sequence (whole entry): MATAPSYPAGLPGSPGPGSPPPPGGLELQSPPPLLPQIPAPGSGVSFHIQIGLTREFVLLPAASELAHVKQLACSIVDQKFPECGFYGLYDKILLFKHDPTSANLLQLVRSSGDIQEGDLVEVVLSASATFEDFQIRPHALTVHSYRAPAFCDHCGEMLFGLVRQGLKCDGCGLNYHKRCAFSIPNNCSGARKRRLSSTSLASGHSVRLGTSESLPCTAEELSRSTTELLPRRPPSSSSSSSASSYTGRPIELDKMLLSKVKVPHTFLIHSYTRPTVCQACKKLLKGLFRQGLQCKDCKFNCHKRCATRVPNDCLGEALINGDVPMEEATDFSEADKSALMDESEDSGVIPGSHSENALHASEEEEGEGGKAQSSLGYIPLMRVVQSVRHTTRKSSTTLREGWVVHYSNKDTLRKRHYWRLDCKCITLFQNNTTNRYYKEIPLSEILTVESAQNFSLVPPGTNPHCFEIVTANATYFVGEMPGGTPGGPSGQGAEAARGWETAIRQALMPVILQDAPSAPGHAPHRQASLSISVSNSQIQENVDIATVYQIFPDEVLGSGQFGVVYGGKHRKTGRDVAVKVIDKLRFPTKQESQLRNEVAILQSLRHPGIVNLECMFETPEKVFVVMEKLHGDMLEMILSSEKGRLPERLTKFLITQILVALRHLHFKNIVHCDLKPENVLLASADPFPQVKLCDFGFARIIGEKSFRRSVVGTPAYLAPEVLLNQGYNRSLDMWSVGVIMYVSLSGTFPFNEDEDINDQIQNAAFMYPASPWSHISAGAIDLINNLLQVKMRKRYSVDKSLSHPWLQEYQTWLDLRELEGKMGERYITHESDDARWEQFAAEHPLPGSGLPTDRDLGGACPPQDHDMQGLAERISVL
The experiment can be described thus: Selectivity interaction (KinomeScan (DiscoverX)) EUB0000607a PRKD2. As to conditions: at 10 µM.

Experiment [5] concerns the target Calcium/calmodulin-dependent protein kinase type 1G (Homo sapiens) (UniProt Q96NX5). As to conditions: at 10 µM.
Experiment [6] has as its target Serine/threonine-protein kinase Nek6 (Homo sapiens) (UniProt Q9HC98). The experiment can be described thus: Selectivity interaction (KinomeScan (DiscoverX)) EUB0000666a NEK6. As to conditions: at 10 µM.
Experiment [7] deals with Ephrin type-A receptor 7 (Homo sapiens) (UniProt Q15375). The experiment can be described thus: Selectivity interaction (KinomeScan (DiscoverX)) EUB0000229b EPHA7. As to conditions: at 10 µM.
Chain of Ephrin type-A receptor 7 (Homo sapiens) (Q15375 28-998 limits assumed): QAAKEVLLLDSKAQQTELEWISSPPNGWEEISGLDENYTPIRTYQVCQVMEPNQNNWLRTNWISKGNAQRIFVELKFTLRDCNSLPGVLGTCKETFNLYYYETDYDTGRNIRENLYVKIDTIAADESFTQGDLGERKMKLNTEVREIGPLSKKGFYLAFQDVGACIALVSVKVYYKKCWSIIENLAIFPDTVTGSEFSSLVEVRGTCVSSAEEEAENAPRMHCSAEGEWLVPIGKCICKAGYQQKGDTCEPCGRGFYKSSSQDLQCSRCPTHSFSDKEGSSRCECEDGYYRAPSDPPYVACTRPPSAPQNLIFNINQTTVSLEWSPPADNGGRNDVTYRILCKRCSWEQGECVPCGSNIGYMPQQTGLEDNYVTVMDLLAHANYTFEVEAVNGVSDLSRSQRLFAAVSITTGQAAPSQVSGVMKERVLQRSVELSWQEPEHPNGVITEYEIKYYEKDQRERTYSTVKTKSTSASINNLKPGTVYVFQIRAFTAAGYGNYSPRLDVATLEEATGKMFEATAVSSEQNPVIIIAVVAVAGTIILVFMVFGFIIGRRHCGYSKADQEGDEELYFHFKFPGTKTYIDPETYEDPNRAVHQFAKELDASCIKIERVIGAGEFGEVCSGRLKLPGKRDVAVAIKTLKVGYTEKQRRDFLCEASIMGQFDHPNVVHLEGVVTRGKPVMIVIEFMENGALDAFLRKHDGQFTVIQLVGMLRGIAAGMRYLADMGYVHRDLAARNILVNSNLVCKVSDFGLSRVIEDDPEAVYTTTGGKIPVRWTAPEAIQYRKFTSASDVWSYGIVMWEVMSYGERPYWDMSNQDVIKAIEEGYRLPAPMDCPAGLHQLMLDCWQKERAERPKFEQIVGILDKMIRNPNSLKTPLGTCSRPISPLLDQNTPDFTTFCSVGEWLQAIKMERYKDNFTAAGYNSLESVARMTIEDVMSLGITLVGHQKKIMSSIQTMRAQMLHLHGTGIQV
In experiment [8] the target is Beta-2 adrenergic receptor (Homo sapiens, UniProt P07550). The experiment can be described thus: Selectivity interaction (Beta 2 adrenergic receptor assay, human recombinant ) EUB0000877a ADRB2.
Chain of Beta-2 adrenergic receptor (P07550 whole entry): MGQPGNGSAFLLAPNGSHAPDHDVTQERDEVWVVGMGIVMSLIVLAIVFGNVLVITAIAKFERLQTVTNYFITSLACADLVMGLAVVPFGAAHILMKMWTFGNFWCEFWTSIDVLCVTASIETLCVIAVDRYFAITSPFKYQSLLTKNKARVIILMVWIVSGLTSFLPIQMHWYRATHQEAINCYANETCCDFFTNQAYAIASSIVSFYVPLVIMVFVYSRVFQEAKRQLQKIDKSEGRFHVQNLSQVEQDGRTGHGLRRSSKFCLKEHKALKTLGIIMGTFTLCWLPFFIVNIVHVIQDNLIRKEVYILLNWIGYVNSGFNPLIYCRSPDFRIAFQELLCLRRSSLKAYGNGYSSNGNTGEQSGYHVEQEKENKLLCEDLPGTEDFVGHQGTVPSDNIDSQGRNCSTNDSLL
Experiment [9] has as its target Serine/threonine-protein kinase MARK2 (Homo sapiens) (UniProt Q7KZI7). Nature of the experiment: Selectivity interaction (ActivX KiNativ screen (kinase selectivity in THP-1 cell lysates)) EUB0000639a MARK2. Type of experiment: subcellular. As to conditions: lysate, at 1 µM.
Experiment [10] deals with Receptor-interacting serine/threonine-protein kinase 3 (Homo sapiens) (UniProt Q9Y572). Nature of the experiment: Selectivity interaction (ActivX KiNativ screen (kinase selectivity in THP-1 cell lysates)) EUB0000639a RIPK3. Type of experiment: subcellular. As to conditions: lysate.
Chain of Receptor-interacting serine/threonine-protein kinase 3 (Homo sapiens) (Q9Y572 whole entry, looked up): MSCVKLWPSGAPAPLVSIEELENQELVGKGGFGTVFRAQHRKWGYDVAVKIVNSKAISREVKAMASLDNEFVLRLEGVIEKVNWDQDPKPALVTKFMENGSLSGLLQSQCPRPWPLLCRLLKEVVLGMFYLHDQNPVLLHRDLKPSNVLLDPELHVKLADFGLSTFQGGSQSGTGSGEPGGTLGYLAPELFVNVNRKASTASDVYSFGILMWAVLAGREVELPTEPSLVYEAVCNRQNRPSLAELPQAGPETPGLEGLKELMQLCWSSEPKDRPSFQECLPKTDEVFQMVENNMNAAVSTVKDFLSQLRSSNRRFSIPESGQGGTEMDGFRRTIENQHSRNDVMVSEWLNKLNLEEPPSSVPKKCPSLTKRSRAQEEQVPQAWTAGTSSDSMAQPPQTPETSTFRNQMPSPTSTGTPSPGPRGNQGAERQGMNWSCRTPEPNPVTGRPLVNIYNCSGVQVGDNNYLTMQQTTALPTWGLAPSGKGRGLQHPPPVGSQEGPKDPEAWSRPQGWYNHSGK
Experiment [11] has as its target Ribosomal protein S6 kinase alpha-3 (Homo sapiens, UniProt P51812). The experiment can be described thus: Selectivity interaction (KinomeScan (DiscoverX)) EUB0001049a RPS6KA3. As to conditions: at 1 µM.
Experiment [12] has as its target Rho-associated protein kinase 1 (Homo sapiens) (UniProt Q13464). Nature of the experiment: Selectivity interaction (KinomeScan (DiscoverX)) EUB0000695a ROCK1. As to conditions: at 100 nM.
For experiment [13], the target named is Transient receptor potential cation channel subfamily M member 6 (Homo sapiens) (UniProt Q9BX84). Nature of the experiment: Selectivity interaction (KinomeScan (DiscoverX)) EUB0000695a TRPM6. As to conditions: at 100 nM.
Experiment [14] deals with Bromodomain-containing protein 7 (Homo sapiens) (UniProt Q9NPI1). Nature of the experiment: Selectivity interaction (Bromodomain panel (DSF asssay)) EUB0000270b BRD7.
Chain of Bromodomain-containing protein 7 (Homo sapiens) (Q9NPI1 whole entry): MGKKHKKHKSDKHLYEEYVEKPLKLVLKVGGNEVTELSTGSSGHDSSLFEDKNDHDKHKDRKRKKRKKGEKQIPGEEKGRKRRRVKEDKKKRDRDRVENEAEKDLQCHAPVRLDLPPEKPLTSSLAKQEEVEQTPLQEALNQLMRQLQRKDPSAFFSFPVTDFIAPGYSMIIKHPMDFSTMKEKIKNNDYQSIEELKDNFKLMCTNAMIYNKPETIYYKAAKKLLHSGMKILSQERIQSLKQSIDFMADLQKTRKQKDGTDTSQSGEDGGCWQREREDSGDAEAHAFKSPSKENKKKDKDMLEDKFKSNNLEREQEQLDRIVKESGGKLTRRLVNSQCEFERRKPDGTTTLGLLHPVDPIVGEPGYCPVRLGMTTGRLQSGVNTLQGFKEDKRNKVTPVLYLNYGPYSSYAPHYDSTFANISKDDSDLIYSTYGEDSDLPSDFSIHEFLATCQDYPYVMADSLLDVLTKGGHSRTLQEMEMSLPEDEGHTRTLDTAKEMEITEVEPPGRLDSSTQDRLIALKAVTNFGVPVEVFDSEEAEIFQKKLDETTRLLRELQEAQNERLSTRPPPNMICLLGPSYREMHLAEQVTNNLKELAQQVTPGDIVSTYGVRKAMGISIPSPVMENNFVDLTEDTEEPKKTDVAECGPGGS
For experiment [15], the target named is Tyrosine-protein kinase CSK (Homo sapiens) (UniProt P41240). Nature of the experiment: Selectivity interaction (KinomeScan (DiscoverX)) EUB0000045b CSK.
Chain of Tyrosine-protein kinase CSK (Homo sapiens) (P41240 2-450 limits assumed): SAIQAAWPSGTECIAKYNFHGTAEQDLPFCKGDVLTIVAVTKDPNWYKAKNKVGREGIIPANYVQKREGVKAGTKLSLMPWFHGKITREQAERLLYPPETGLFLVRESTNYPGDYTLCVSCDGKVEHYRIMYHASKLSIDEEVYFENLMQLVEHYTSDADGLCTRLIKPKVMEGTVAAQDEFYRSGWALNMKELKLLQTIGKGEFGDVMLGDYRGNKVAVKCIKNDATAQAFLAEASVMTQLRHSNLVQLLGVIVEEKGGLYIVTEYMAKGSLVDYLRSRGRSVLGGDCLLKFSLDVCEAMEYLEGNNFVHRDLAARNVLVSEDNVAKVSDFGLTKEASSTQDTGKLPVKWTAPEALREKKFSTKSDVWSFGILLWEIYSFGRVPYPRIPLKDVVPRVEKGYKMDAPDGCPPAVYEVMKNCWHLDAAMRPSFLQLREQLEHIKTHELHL
Experiment [16] addresses Serine/threonine-protein kinase pim-3 (Homo sapiens) (UniProt Q86V86). The experiment can be described thus: Selectivity interaction (KinomeScan (DiscoverX)) EUB0000618a PIM3. As to conditions: at 10 µM.
In experiment [17] the target is Casein kinase I isoform alpha (Homo sapiens, UniProt P48729). Nature of the experiment: Selectivity interaction (KinomeScan (DiscoverX)) EUB0000595a CSNK1A1. As to conditions: at 10 µM.
For experiment [18], the target named is G protein-coupled receptor kinase 4 (Homo sapiens) (UniProt P32298). The experiment can be described thus: Selectivity interaction (KinomeScan (DiscoverX)) EUB0000595a GRK4. As to conditions: at 10 µM.

A value given as a limit tells only on which side of the number the result lay.

This note sets out measurements from ChEMBL document CHEMBL5465560, “Selectivity Literature for EUbOPEN Chemogenomic Library” (2024).

The IC50 is the midpoint of a concentration-inhibition curve.

Chain of Serine/threonine-protein kinase 24 (Homo sapiens) (Q9Y6E0 whole entry, looked up): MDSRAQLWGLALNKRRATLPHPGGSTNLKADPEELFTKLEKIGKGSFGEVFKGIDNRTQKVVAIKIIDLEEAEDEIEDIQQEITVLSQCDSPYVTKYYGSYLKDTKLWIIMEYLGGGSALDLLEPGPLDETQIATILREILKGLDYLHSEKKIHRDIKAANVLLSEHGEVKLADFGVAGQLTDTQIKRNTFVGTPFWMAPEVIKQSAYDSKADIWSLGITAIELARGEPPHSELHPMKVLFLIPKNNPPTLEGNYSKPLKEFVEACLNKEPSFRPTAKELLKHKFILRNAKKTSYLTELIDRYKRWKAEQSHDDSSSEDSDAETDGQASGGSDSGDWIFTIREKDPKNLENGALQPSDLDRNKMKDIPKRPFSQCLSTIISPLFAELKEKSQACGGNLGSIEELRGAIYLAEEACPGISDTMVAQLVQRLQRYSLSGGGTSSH
Chain of Rho-associated protein kinase 1 (Homo sapiens) (Q13464 2-1354 limits assumed): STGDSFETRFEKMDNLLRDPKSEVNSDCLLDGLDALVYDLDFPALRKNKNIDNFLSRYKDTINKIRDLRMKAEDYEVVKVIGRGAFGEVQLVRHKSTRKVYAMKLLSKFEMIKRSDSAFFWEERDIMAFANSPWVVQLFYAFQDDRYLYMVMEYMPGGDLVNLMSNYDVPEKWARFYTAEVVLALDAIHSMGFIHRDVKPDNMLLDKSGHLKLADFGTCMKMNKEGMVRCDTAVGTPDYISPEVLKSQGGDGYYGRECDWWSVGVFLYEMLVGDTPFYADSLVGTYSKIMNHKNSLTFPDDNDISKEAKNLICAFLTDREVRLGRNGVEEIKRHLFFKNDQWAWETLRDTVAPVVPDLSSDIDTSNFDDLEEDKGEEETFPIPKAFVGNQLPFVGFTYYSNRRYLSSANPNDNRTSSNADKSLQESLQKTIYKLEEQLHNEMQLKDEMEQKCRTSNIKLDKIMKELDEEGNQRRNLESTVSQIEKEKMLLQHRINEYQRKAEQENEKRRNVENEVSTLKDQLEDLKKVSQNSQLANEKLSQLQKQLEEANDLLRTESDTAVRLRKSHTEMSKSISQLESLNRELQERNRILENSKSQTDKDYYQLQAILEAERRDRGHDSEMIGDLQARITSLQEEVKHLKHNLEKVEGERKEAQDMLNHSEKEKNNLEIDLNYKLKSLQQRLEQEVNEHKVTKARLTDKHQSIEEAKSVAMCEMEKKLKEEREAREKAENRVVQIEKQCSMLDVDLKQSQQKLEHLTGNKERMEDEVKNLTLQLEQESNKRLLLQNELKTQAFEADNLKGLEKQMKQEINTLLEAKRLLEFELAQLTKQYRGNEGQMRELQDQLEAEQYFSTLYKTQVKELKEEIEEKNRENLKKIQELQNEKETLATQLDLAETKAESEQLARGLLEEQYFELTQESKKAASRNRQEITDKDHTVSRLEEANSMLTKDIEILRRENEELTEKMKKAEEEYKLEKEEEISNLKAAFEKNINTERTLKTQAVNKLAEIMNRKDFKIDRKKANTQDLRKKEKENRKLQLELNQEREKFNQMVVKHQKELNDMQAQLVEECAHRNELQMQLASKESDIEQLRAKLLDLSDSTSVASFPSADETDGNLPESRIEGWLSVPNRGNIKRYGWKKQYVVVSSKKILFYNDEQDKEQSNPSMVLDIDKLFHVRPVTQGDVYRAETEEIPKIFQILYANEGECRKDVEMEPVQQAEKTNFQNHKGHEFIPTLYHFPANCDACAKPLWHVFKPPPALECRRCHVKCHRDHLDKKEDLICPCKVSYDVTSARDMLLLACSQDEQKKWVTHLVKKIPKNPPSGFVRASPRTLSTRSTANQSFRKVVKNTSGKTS

Take `C=CC(=O)Nc1ccc(C(=O)Nc2[nH]nc3c2CN(C(=O)N[C@H](CN(C)C)c2ccccc2)C3(C)C)cc1`: in experiment [1], the % of engagement turned out to be 41.8%.

`CN(C)C/C=C/C(=O)Nc1ccc(C(=O)N2CCCC(Nc3ncc(Cl)c(-c4c[nH]c5ccccc45)n3)C2)cc1` (stereo not drawn) registered a % of control in experiment [2] of 83%.

In the case of `CNC(=O)Nc1ccc(-c2nc(N3CC4CCC(C3)O4)c3cnn(C4CCC5(CC4)OCCO5)c3n2)cc1`, the % of control in experiment [3] turned out to be 83%; in [4], 100%.

For the molecule `Cc1cc([C@@H](C)Nc2ccccc2C(=O)O)c2nc(N3CCOCC3)cc(=O)n2c1` [AZD-6482], the % of control in experiment [5] is 91%.

As to `O=C(NOC[C@H](O)CO)c1ccc(F)c(F)c1Nc1ccc(I)cc1F`, in experiment [6], the % of control is 100%.

As to `COc1cc(N(C)c2ccnc3ccc(C(F)(F)F)cc23)cc(OC)c1OC`, the % binding in experiment [7] amounted to 99%.

In the case of `CCC(=O)N1CC[C@H](Nc2ncnc3c2CN(c2cnc(OC)c(C(F)(F)F)c2)CC3)C1` [LENIOLISIB], the IC50 in experiment [8] is above 30 µM.

Regarding `CC[C@@H]1[C@H](F)C(=O)N[C@@H]1COc1nccc2cc(C(N)=O)c(OC)cc12` [ZIMLOVISERTIB], the % of inhibition in experiment [9] is 23.8%; in [10] (at 0.01 µM), 3%; in experiment [10] (at 0.04 µM) it was -0.8%; in experiment [10] (at 0.2 µM), -4.3%; in experiment [10] (at 1 µM), 8.9%; in [10] (at 5 µM), -8.6%.

In experiment [11], `COc1cc(Nc2nc(C)cc(-c3cnn4nc(OC)ccc34)n2)cc(C(F)(F)F)c1` gave a % of control of 77%.

As to `Cc1cc(F)c(C(=O)Nc2cccc(-c3nncn3C(C)C)n2)cc1-n1cnc(C2CC2)c1`, the % of control turned out to be 99% in experiment [12] and 100% in [13].

Turning to `Cc1cc(CN)cc(C)c1-c1ncn(C)c1-c1cncn1C`, the dTM in [14] is -1.08 K.

Consider `C=CC(=O)Nc1cc(-n2c(=O)ccc3cnc4ccc(-c5ccc(NS(C)(=O)=O)cc5)cc4c32)ccc1C`, for which the % of control in experiment [15] (at 1 µM) is 99%; in experiment [15] (at 10 µM) it was 75%.

Regarding `O[C@H]1CC[C@H](Nc2ncc3nc(Nc4c(F)cc(F)cc4F)n([C@H]4CCOC4)c3n2)CC1`, the % of control in experiment [16] is 100%.

On to `COCC(=O)NC/C=C/c1ccc2ncnc(Nc3ccc(Oc4ccc(C)nc4)c(C)c3)c2c1` [CP-724714], for which the % of control in experiment [17] and in experiment [18] was 100% in each case.
